This test relates to E. coli wild-type GFP strain growth, fluorescence, 24 h. The test is described as follows: growth inhibition of wild-type GFP E. coli, dose response, H69 mutant RFP, cherry-pick (AID 977621).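 Also: wild-type GFP and H69 mutant RFP strains grown together 50/50 in each well.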
The mark [1] stands for this setting: E. coli mixed culture, 24 h, measured here: total growth OD600, test 2.

Consider 81 compounds from PubChem BioAssay AID977621 (Broad Institute, 2014).

Records with an inconclusive call do not appear. Activity calls are given as the source filed them.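 The calls were made as follows: active = Wild-type ribosome reporter drop at least double the humanized mutant ribosome reporter drop, growth loss under a set limit; inconclusive = no clear call, values can overlap the other calls; inactive = the rest.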

A word on the AC50: it is the concentration giving half of the maximal activity seen.

For the compound `O=C(O)CC1(CC(=O)NCc2ccc(-c3cccs3)cc2)CCCCC1`, the AC50 is > 100 µM (inactive).

Take `CCn1c(SCC(=O)Nc2ccc(OC)cc2)nc2nc3c(cc2c1=O)CCCC3`: the AC50 under setting [1] was above 100 µM. As to `CCOC(=O)c1c(C)nsc1NCc1ccccc1`, the AC50 under setting [1] is above 100 µM. Regarding `O=C1OCCC1Sc1nc2ccccc2c(=O)n1Cc1ccccc1` (configuration not stated), the AC50 is > 100 µM (inactive).

As for `Cc1cc(C)c(OCCNC(=O)c2ccccc2Sc2ccccc2C#N)c(C)c1`, the AC50 is > 100 µM (inactive). This compound also yielded an AC50 (E. coli mixed culture, 24 h, measured here: total growth OD600, test 1) of 5.7 µM. Take `COC(=O)COc1ccc(Cl)cc1C1Nc2ccccc2C(=O)N1c1ccc(OC)cc1` (configuration not stated): the AC50 is > 100 µM (inactive). The AC50 under setting [1] was above 100 µM. Regarding `COc1ccc(NC(=O)Nc2cccc3c2O[C@H](CN(C)S(=O)(=O)c2ccc(Cl)cc2)[C@@H](C)CN([C@H](C)CO)C3=O)cc1`, the AC50 was > 100 µM (inactive). As to `CC1CCN(c2ccc3nnc(CCC(=O)Nc4cccc(F)c4)n3n2)CC1`, the AC50 was > 100 µM (inactive). The AC50 under setting [1] was above 100 µM.

As to `Cc1ccc2oc(C(=O)N(CCO)Cc3ccccc3)c(C)c2c1`, the AC50 is > 100 µM (inactive). Further, under setting [1], the AC50 is 32.4 µM. The compound `CCc1nnc(NS(=O)(=O)c2ccc(NC(=O)c3cc(Cl)ccc3[N+](=O)[O-])cc2)s1` gave an AC50 under setting [1] of 51.9 µM. Regarding `CC(C)(C)c1ccc(S(=O)(=O)NCc2ccc(C(=O)NCc3ccccn3)cc2)cc1`, the AC50 under setting [1] is above 100 µM.

In turn, `COc1ccc(CNC(=O)CSCc2c(F)cccc2Cl)cc1` came in with an AC50 under setting [1] above 100 µM. Regarding `CS(=O)(=O)NCCSc1cc(C(F)(F)F)nc2ccccc12`, the AC50 was > 100 µM (inactive). Under setting [1], this compound registered an AC50 of 30.4 µM. For `COc1ccc(CCNc2nc(-c3ccncc3)cs2)cc1OC`, the AC50 is > 100 µM (inactive). Same read-out and setting: then `COc1ccc(-n2c(-c3ccc(C)cc3)nc3ccccc3c2=O)cc1`, with > 100 µM (inactive). As for `Fc1ccc(-n2cc(CNCCc3cccnc3)c(-c3ccccc3Cl)n2)cc1`, the AC50 is > 100 µM (inactive). The same compound came in with an AC50 under setting [1] of 27.8 µM. For `Cc1onc(-c2ccccc2)c1-c1nnc(-c2ccccc2C(F)(F)F)o1`, the AC50 is > 100 µM (inactive). Turning to `CCOc1ccc(NC(=O)CN(C)CC(=O)Nc2ccc(Br)cc2F)cc1OCC`, the AC50 was > 100 µM (inactive). The compound further displayed an AC50 under setting [1] above 100 µM. In the case of `O=C(NCc1ccc(-c2nc3ccccc3s2)cc1)c1ccco1`, the AC50 was > 100 µM (inactive). With `O=c1[nH]nc(SCc2ccccc2)n1C1CC2C=CC1C2` (configuration not stated), under setting [1], the AC50 was found to be 40.6 µM. Still for that read-out and setting: in the case of `COc1cc2cc(C(=O)Nc3ccc4c(c3)OCCO4)[nH]c2cc1OC` it was above 100 µM; in that of `COc1ccc(OC)c(S(=O)(=O)Nc2cccc3ccc(O)cc23)c1`, above 100 µM. Same read-out and setting: then `O=C(Cc1cccc2ccccc12)Nc1ccccc1C(=O)O`, with 50.2 µM.

On to `Cc1ccc(C(=O)OCC(=O)c2c[nH]c3ccccc23)cc1NC(=O)c1ccco1`, for which the AC50 was > 100 µM (inactive). Take `O=S(=O)(c1ccccc1)N1CCN=C1SCc1cccc(Cl)c1`: the AC50 is > 100 µM (inactive). The AC50 under setting [1] came to 35.9 µM. As to `CN(c1ccc(C(=O)NCc2cccs2)cc1)S(=O)(=O)c1ccccc1`, the AC50 under setting [1] is below 0.6 µM. Take `CC(C)Cc1nnc(NS(=O)(=O)c2ccccc2)s1`: the AC50 is > 100 µM (inactive). In the case of `O=C(NCc1cccnc1)c1ccc(COc2ccccc2Br)o1`, the AC50 is > 100 µM (inactive). Moreover, under setting [1], the AC50 was determined as 46.2 µM. In the case of `CCn1ncc(Br)c1C(=O)Nc1ccc2c(c1)OCCO2`, the AC50 is > 100 µM (inactive). Under setting [1], `CC(=O)OC(COc1cccc(C)c1)Cn1cnc2ccccc21` (configuration not stated) displayed an AC50 of 48.6 µM. For the compound `COCc1cc(C)nc(SCC[N+](C)(C)CC(=O)c2ccc(Br)cc2)c1C#N`, the AC50 is > 100 µM (inactive).

In the case of `O=C1NC(CCc2ccccc2)C(=O)N1Cc1cccc2ccccc12` (configuration not stated), the AC50 under setting [1] is 50 µM. As to `O=C(Nc1ccn(Cc2ccc(Cl)cc2)n1)c1ccccc1`, the AC50 under setting [1] was above 100 µM. With `Cc1onc(-c2ccccc2Cl)c1C(=O)N[C@@H](C)c1ccccc1`, the AC50 was > 100 µM (inactive). Further, under setting [1], the AC50 was above 100 µM. For `C[C@@H]1CCCCO[C@@H](CN(C)C(=O)c2ccccc2)[C@H](C)CN([C@@H](C)CO)C(=O)c2cc(NC(=O)Cc3ccccc3)ccc2O1` the same measures were > 100 µM (inactive) and above 100 µM. Regarding `COc1ccc(-c2csc(NC(=O)c3ccoc3C)n2)cc1`, the AC50 is > 100 µM (inactive). Further, the AC50 under setting [1] worked out at 48.8 µM.

`CCn1nnc(NC(=O)c2ccc([N+](=O)[O-])o2)n1`: the AC50 is > 100 µM (inactive). In the case of `NC(=O)CSc1nc2cc([N+](=O)[O-])ccc2n1-c1cccc(C(F)(F)F)c1`, the AC50 is > 100 µM (inactive). Compound `COc1ccc(OC)c(-c2csc(NC(=O)C3COc4ccccc4O3)n2)c1` (configuration not stated) gave an AC50 under setting [1] above 100 µM. With `S=C1SCN(Cc2cccnc2)CN1Cc1cccnc1`, the AC50 under setting [1] is above 100 µM. Still for that read-out and setting: then `COc1cc(-c2ccc(N3C(c4ccsc4)=Cc4ccc(F)cc4C3c3c[nH]c4ccc(C#N)cc34)cc2)cc(OC)c1OC` (configuration not stated), with above 100 µM. As to `COc1ccc(NS(=O)(=O)c2ccc(Cl)c(NC(=O)c3ccccc3F)c2)cc1`, the AC50 was > 100 µM (inactive). For the compound `O=C(CSc1ccncc1)Nc1ccc2ccccc2c1`, the AC50 was > 100 µM (inactive). This compound gave an AC50 under setting [1] of 30 µM.

Compound `COc1ccc(NC(=O)CCS(=O)(=O)c2ccccc2Cl)cc1S(=O)(=O)Nc1ccc(Cl)cc1` registered an AC50 under setting [1] above 100 µM.

As for `Cc1nc(-c2ccc([N+](=O)[O-])cc2)c(-c2ccccc2)o1`, the AC50 is > 100 µM (inactive). Turning to `O=C(C[C@H]1CC[C@H]2[C@@H](COC[C@@H](O)CN2C(=O)Nc2ccc(Cl)cc2)O1)N1CCCCC1`, the AC50 is > 100 µM (inactive).

Consider `COc1cc(C(F)(F)F)c(C(=O)N(C)Cc2ccc(Cl)c(Cl)c2)cn1`, for which the AC50 is > 100 µM (inactive). In addition, under setting [1], the AC50 came out at 44.6 µM. For `COC(=O)[C@H](Cc1c[nH]c2ccccc12)NCc1cccc(B(O)O)c1` the same measures were > 100 µM (inactive) and above 100 µM. As for `Nc1nn(-c2ccccc2)c2ccc([N+](=O)[O-])cc12`, the AC50 was > 100 µM (inactive). As for `Cc1cccc(CSCC(=O)N2CCN(S(=O)(=O)c3ccccc3C#N)CC2)c1`, the AC50 was > 100 µM (inactive).

`CC(=O)NCCOc1nc(N2CCCCC2)nc(N2CCCCC2)n1` registered an AC50 under setting [1] above 100 µM. Turning to `COc1ccc(C(=O)C2CCCN(C(=O)c3noc4c3CCCC4)C2)cc1F` (configuration not stated), the AC50 was > 100 µM (inactive).

Regarding `Cc1csc2c(N3CCC(C(=O)O)CC3)ncnc12`, the AC50 was > 100 µM (inactive).

As to `O=C(CC1C(=O)N(c2ccc(Cl)cc2)C(=S)N1CCc1ccncc1)Nc1ccc(F)cc1` (configuration not stated), the AC50 under setting [1] came out at 36.4 µM. For `O=C(CC(c1ccccc1)c1cc(Br)ccc1O)N1CCCC1` (configuration not stated), the AC50 is > 100 µM (inactive). The compound also displayed an AC50 under setting [1] of 36.4 µM. On to `O=C1c2ccccc2C(c2nnnn2Cc2ccccc2)N1CCc1ccc(O)cc1` (configuration not stated), for which the AC50 is > 100 µM (inactive). In the case of `O=C(CSc1n[nH]c(=O)n1C1CC1)Nc1ccc(Cl)c(Cl)c1`, the AC50 was > 100 µM (inactive). In the case of `Cc1c(Cc2ccccc2)sc(NC(=O)C(C)(C)C)c1C(N)=O`, the AC50 was > 100 µM (inactive). Under setting [1], this compound had an AC50 of 50.6 µM.

With `N#Cc1ccccc1CSc1nc2ccc(NC(=O)c3ccccc3C(=O)O)cc2s1`, the AC50 was > 100 µM (inactive).

As to `CS(=O)(=O)N(CC(=O)N1CCc2ccccc2C1)c1ccc(Br)cc1`, the AC50 was > 100 µM (inactive). The same compound came in with an AC50 under setting [1] of 33.1 µM. For `CCOC(=O)C(CC)Sc1cc(C)nc2ccc(OC)cc12` (configuration not stated), the concentration at half-maximal activity (AC50) under setting [1] is above 100 µM.

Consider `N#Cc1ccsc1NC(=O)CSc1nnnn1-c1ccc(O)cc1`, for which the AC50 is > 100 µM (inactive). In the case of `Cc1ccc(S(=O)(=O)N2CCCCC2C(=O)N2CCN(c3ccccc3F)CC2)cc1` (configuration not stated), under setting [1], the AC50 is above 100 µM. Consider `NS(=O)(=O)c1cccc(NC(=O)CSc2nc3ccccc3n2-c2ccccc2)c1`, for which the AC50 is > 100 µM (inactive). In addition, the AC50 under setting [1] turned out to be 40.3 µM. For `CCn1nc(C(=O)OCc2cccc(S(=O)(=O)N(C)C)c2)c2ccccc2c1=O` the same measures were > 100 µM (inactive) and above 100 µM. In turn, `COc1ccc(-c2cc(C(=O)Nc3ccc(C(N)=O)cc3)c3ccccc3n2)cc1OC` displayed an AC50 under setting [1] above 100 µM. As for `COc1ccc(-c2nnn(CC(=O)N3CCN(c4ccccc4OC)CC3)n2)cc1OC`, the AC50 was > 100 µM (inactive). As to `CN(CCOc1ccccc1)S(=O)(=O)c1ccccc1C#N`, the AC50 under setting [1] is above 100 µM.

`Cc1ccc(C2NC(c3ccc(C)cc3)C(C)C(=O)C2C)cc1` (configuration not stated): the AC50 under setting [1] was 47.8 µM. As for `CC(C)(C)N(Cc1ccccc1)C(=O)CN1C(=O)c2ccccc2S1(=O)=O`, the AC50 was > 100 µM (inactive). For `CCOC(=O)c1cnc2c(c(C)nn2C)c1Oc1ccc(OC)cc1`, the AC50 under setting [1] was above 100 µM. Consider `Clc1ccc(-c2nc(NCCCN3CCOCC3)c3ccccc3n2)cc1`, for which the AC50 is > 100 µM (inactive). In turn, `COc1ccc(C2=NN(C(=O)c3cccnc3)C(c3ccccc3)C2)cc1` (configuration not stated) yielded an AC50 under setting [1] of 1.05 µM. Regarding `COc1cccc(NC2=Nc3cccc4cccc2c34)c1`, under setting [1], the AC50 was above 100 µM.

`O=C(Cc1ccc(Br)cc1)Nc1cccc(-c2cn3c(n2)SCC3)c1`: the half-maximal activity concentration (AC50) under setting [1] was above 100 µM. For the compound `C[C@@H]1CN([C@H](C)CO)C(=O)c2cccc(NC(=O)c3ccncc3)c2O[C@@H]1CN(C)S(=O)(=O)c1ccc(Cl)cc1`, the AC50 was > 100 µM (inactive). Also, the AC50 under setting [1] is above 100 µM.

Regarding `Cc1cccc(CN2C(=O)c3ccccc3Sc3ccc(C(=O)O)cc32)c1`, the AC50 is > 100 µM (inactive). Under setting [1], `Cc1nc(SCC(=O)Nc2ccc3c(c2)OCCO3)nc(C)c1C` came in with an AC50 of 43.7 µM. The same measure, in the same setting: then `Cc1cc(C(=O)COC(=O)c2ccc(O)cc2)c(C)n1CC(F)(F)F`, with above 100 µM. For `CC(NCc1ccc(S(N)(=O)=O)cc1)C(=O)Nc1cc([N+](=O)[O-])ccc1Cl` (configuration not stated), the AC50 is > 100 µM (inactive). For `COc1cc(NC(=O)C(c2ccccc2)c2ccccc2)c(C(=O)O)cc1OC`, the AC50 was > 100 µM (inactive).
